Assay results taken from US9586928B2 (The Scripps Research Institute, priority 2011, dated 2017).

Assays:
T regulatory cells = test: T regulatory cell differentiation of splenocytes (RTPCR, Foxp3 FACS); type: cell-based, murine
Description: Therefore, the environmental cues associated with the concentration of TGF[…] dictates the balance between TH17 and T regulatory cell differentiation. In light of the reciprocal relationship between these two cell types, we assessed whether SR1555 affected the development of T regulatory cells in vitro. Splenocytes were cultured under T regulatory cell polarizing conditions (TGFβ and IL-2) for 3 days. […] To determine whether the gene expression data would correlate with protein expression, we again cultured splenocytes for 5 days under T regulatory cell polarizing conditions in the presence of DMSO or SR1555 and examined the expression of Foxp3 by intracellular cytokine FACS analysis.
Splenocytes were differentiated under the following conditions: iTreg-10 μg/mL anti-IFNγ, 10 μg/mL anti-IL-4, and 2 ng/mL TGFβ (R&D Systems); 20 ug/mL anti-IFNγ, 20 ug/mL anti-IL-4, 1 ng/mL TGFβ, and 10 ng/mL IL-6 (R&D Systems) for TH17 conditions. All cultures were stimulated with 1 μg/mL anti-CD3 (eBiosciences) and 1 μg/mL anti-CD28 (eBiosciences). Four to five days after activation, all cells were restimulated with 5 ng/mL phorbol-12-myristate-13-acetate (PMA) (Sigma) and 500 ng/mL ionomycin (Sigma) for 2 hours with the addition of GolgiStop (BD Bioscience) for an additional 2 hours before intracellular staining. Cells were cultured in RPMI 1640 medium (Invitrogen) with 10% FBS and antibiotics.
RNA extraction and QRT-PCR analysis was performed as previously described.

RORα = target: T1, RORα (Homo sapiens, UniProt P35398); test: IL-17 promoter luciferase reporter with full-length RORα; type: cell-based
T1 sequence (P35398 1-523): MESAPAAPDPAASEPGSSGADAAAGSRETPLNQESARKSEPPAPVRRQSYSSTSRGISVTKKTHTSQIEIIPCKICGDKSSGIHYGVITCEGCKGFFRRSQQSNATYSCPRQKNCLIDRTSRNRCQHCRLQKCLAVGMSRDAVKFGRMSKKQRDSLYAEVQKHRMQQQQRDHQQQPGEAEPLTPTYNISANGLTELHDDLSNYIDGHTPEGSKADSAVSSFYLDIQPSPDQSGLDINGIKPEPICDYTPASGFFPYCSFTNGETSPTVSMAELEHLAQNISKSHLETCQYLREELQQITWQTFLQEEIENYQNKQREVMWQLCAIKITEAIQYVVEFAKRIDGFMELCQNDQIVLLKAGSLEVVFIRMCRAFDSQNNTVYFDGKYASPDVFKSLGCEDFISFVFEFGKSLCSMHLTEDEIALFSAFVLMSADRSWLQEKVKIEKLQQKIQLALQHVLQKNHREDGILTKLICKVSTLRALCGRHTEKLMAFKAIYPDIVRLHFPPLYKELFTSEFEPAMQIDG
Description: Since RORα and RORγ are critical regulators of IL-17 gene expression, we examined whether SR1555 would affect RORα and RORγ-dependent regulation of an IL-17 promoter driven luciferase reporter construct. HEK293 cells were transiently transfected with an IL-17 reporter, either full-length RORα or RORγ, and treated with an increasing concentration of SR1555[8]. In a dose dependent manner, SR1555 suppressed IL-17 promoter driven activity by RORγ but not RORα, further confirming that SR1555 is indeed a RORγ-specific inverse agonist (FIG. 1d). Finally, using EL4 cells, a murine thymoma which endogenously express RORα, RORγ t, and IL-17A, we examined whether SR1555 affected endogenous IL-17 gene expression. EL4 cells were treated with DMSO or SR1555 for 24 hours and analyzed for Il17a gene expression by quantitative real-time PCR.
Cotransfection assays were performed as previously described in HEK293 cells (Gal4 cotransfection assay or IL-17 luciferase reporter)[8]. […]
HEK293 cells were maintained in Dulbecco's modified Eagle's medium (DMEM) supplemented with 10% fetal bovine serum at 37° C. under 5% CO2. […] The luciferase levels were assayed following additional 20 hour incubation by one-step addition of BriteLite Plus (Perkin Elmer) and read using an Envision (Perkin Elmer). […]

With `OC(c1ccc(-c2ccc(CN3CCN(Cc4ccncc4)CC3)cc2)c(F)c1)(C(F)(F)F)C(F)(F)F` [SR2211, 1,1,1,3,3,3-hexafluoro-2-(2-fluoro-4′-((4-(pyridin-4-ylmethyl)piperazin-1-yl)methyl)-[1,1′-biphenyl]-4-yl)propan-2-ol] the “T regulatory cell proliferation” value (T regulatory cells) was “does not alter T regulatory cell proliferation” and the “IL-17 promoter driven activity by RORα” value (RORα) was “did not alter the transcription driven by the Il17 promoter”.
